From ChEMBL document CHEMBL1201862, “PubChem BioAssay data set” (2004)
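How tested: cells in 96-well plates exposed to compound for 48 hours at five concentrations. The concentration for 50% growth inhibition is given as GI50.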 Active and inactive are the calls of the source. Cut-off read from the data, not from the text of the source: active = GI50 up to about 1.1 µM and inactive = higher.

Assays:
Experiment in all cases: DTP human tumour cell line panel, 48 h
786-0 = system: 786-0
A498 = system: A498
A549 = system: A549
ACHN = system: ACHN
BT-549 = system: BT-549
CAKI-1 = system: CAKI-1
CCRF-CEM = system: CCRF-CEM
COLO 205 = system: COLO 205
DU-145 = system: DU-145
HCT-116 = system: HCT-116
HCT-15 = system: HCT-15
HL-60 = system: HL-60
HOP-62 = system: HOP-62
HT-29 = system: HT-29
Hs-578T = system: Hs-578T
IGROV-1 = system: IGROV-1
K562 = system: K562
KM12 = system: KM12
LOX IMVI = system: LOX IMVI
M14 = system: M14
MCF7 = system: MCF7
MDA-MB-231 = system: MDA-MB-231
MDA-MB-435 = system: MDA-MB-435
MDA-N = system: MDA-N
MOLT-4 = system: MOLT-4
Malme-3M = system: Malme-3M
NCI-H226 = system: NCI-H226
NCI-H23 = system: NCI-H23
NCI-H460 = system: NCI-H460
NCI-H522 = system: NCI-H522
NCI/ADR-RES = system: NCI/ADR-RES
OVCAR-3 = system: OVCAR-3
OVCAR-5 = system: OVCAR-5
OVCAR-8 = system: OVCAR-8
PC-3 = system: PC-3
RPMI-8226 = system: RPMI-8226
RXF 393 = system: RXF 393
SF-268 = system: SF-268
SF-295 = system: SF-295
SF-539 = system: SF-539
SK-MEL-28 = system: SK-MEL-28
SK-MEL-2 = system: SK-MEL-2
SK-MEL-5 = system: SK-MEL-5
SK-OV-3 = system: SK-OV-3
SN12C = system: SN12C
SNB-19 = system: SNB-19
SNB-75 = system: SNB-75
SW-620 = system: SW-620
T47D = system: T47D
TK-10 = system: TK-10
U-251 = system: U-251
UACC-257 = system: UACC-257
UACC-62 = system: UACC-62
UO-31 = system: UO-31

## CN1CN(c2ccccc2)C2(CCN(CCCN(C)c3ccc(F)cc3)CC2)C1=O
786-0
  GI50: 18.6 µM (inactive)
A498
  GI50: 29.4 µM (inactive)
A549
  GI50: 23.2 µM (inactive)
ACHN
  GI50: 22.2 µM (inactive)
BT-549
  GI50: 15.2 µM (inactive)
CAKI-1
  GI50: 30.1 µM (inactive)
CCRF-CEM
  GI50: 11.2 µM (inactive)
COLO 205
  GI50: 11.6 µM (inactive)
DU-145
  GI50: 23.9 µM (inactive)
HCT-116
  GI50: 12.8 µM (inactive)
HCT-15
  GI50: 22.3 µM
HL-60
  GI50: 3.21 µM (inactive)
HOP-62
  GI50: 17.7 µM (inactive)
HT-29
  GI50: 10.1 µM (inactive)
Hs-578T
  GI50: 18.7 µM (inactive)
IGROV-1
  GI50: 16.5 µM (inactive)
K562
  GI50: 1.58 µM (inactive)
KM12
  GI50: 16 µM (inactive)
LOX IMVI
  GI50: 15.8 µM (inactive)
M14
  GI50: 16.2 µM (inactive)
MCF7
  GI50: 15.2 µM (inactive)
MDA-MB-231
  GI50: 14.3 µM (inactive)
MDA-MB-435
  GI50: 18.2 µM (inactive)
MDA-N
  GI50: 16.3 µM (inactive)
MOLT-4
  GI50: 5.02 µM (inactive)
Malme-3M
  GI50: 19.5 µM (inactive)
NCI-H226
  GI50: 19.1 µM (inactive)
NCI-H23
  GI50: 19.1 µM (inactive)
NCI-H460
  GI50: 16.4 µM (inactive)
NCI-H522
  GI50: 13.9 µM (inactive)
NCI/ADR-RES
  GI50: 20.6 µM (inactive)
OVCAR-3
  GI50: 16 µM (inactive)
OVCAR-5
  GI50: 17.3 µM (inactive)
OVCAR-8
  GI50: 18.9 µM (inactive)
PC-3
  GI50: 23.4 µM (inactive)
RPMI-8226
  GI50: 10.7 µM (inactive)
RXF 393
  GI50: 16.3 µM (inactive)
SF-268
  GI50: 20.3 µM (inactive)
SF-295
  GI50: 14.9 µM (inactive)
SF-539
  GI50: 22.5 µM (inactive)
SK-MEL-28
  GI50: 20.9 µM (inactive)
SK-MEL-2
  GI50: 17.5 µM (inactive)
SK-MEL-5
  GI50: 16.2 µM (inactive)
SK-OV-3
  GI50: 17.1 µM (inactive)
SN12C
  GI50: 34.5 µM (inactive)
SNB-19
  GI50: 20 µM (inactive)
SNB-75
  GI50: 16.9 µM (inactive)
SW-620
  GI50: 17.8 µM (inactive)
T47D
  GI50: 16.7 µM (inactive)
TK-10
  GI50: 18.9 µM (inactive)
U-251
  GI50: 18.6 µM (inactive)
UACC-257
  GI50: 17.8 µM (inactive)
UACC-62
  GI50: 18.7 µM (inactive)
UO-31
  GI50: 16.2 µM (inactive)
